Measurements published in patent US8980908B2, “Non-peptidyl, potent, and selective mu opioid receptor antagonists and their use in treating opioid addiction and opioid induced constipation” (Virginia Commonwealth University, priority 2009, dated 2015).
Where two headings read alike, the source gives them in different places.

Experiments:
DOR [1] = target: DOR (UniProt P41143); type: binding; set-up: rows headed: Ki ± SEM [3H]NTI (δ); other: n=3; Ki ± SEM DOR; settings: n=3; read-out: Ki ± SEM DOR
MOR [2] = target: T1, MOR (Mus musculus, UniProt P42866); experiment: Competitive radioligand binding, [3H]DAMGO, mono-cloned receptor in CHO cells (Example 1); set-up: expressed in transfected cells; host or cells: CHO (Chinese hamster ovary) cell line, membrane preparation; settings: read-out: Ki ± SEM [3H]DAMGO (μ); n=3
MOR [3] = target: T1, MOR; experiment: [35S]GTPγS functional assay (Example 1); type: biochemical; set-up: expressed in transfected cells; host or cells: CHO (Chinese hamster ovary) cell line, membrane preparation; settings: Emax of compound vs Emax of DAMGO (normalized to 100%)
DOR [4] = target: DOR (UniProt P41143); type: binding; set-up: rows headed: Ki ± SEM [3H]NTI (δ); other: n=3; Ki ± SEM DOR; settings: n=3; read-out: Ki ± SEM [3H]NTI (δ)
MOR [5] = target: T1, MOR; experiment: Competitive radioligand binding, [3H]naloxone, CHO cells (Example 2); set-up: expressed in transfected cells; host or cells: CHO (Chinese hamster ovary) cell line, membrane preparation; settings: n=3; read-out: Ki ± SEM MOR
KOR [6] = target: T2, KOR (Homo sapiens, UniProt P41145); type: binding; settings: n=3; read-out: Ki ± SEM KOR
T2 construct: expressed in transfected cells; host or cells: CHO (Chinese hamster ovary) cell line, membrane preparation

KOR [7] = target: T2, KOR; type: binding; settings: n=3; read-out: Ki ± SEM [3H]norBNI (κ)
Caco-2 cells [8] = experiment: Bidirectional transport in Caco-2 cells; type: in vitro ADME
Experimental: To further characterize the permeability of compounds 8 and 12, they were evaluated in Caco-2 cells for their bidirectional transport capacity (FIG. 29).
Caco-2 (passages 45-47; ATCC, Manassas, Va.) cell culture and bidirectional permeability studies with polyester Transwell filters were performed as described previously.^67 Briefly, cells were cultured in Dulbecco's modified Eagle's medium (9.6 g/L glucose) with 10%/fetal bovine serum and supplemented with 100 unit/mL penicillin, 100 μg/mL streptomycin, and 5% nonessential amino acids for 22 days after seeding on 12 mm 0.4 μm #3460 Transwell-Clear inserts (Fisher Scientific) at a density of 80,000 cells/cm^2. […] A portion of the supernatants was analyzed by HPLC-UV using an Alltima HP C18 column (3 μm, 4.6×100 mm; Alltech, Deerfield, Ill.) at 270 nm for NAP, and a Microsorb-MV 100-3 C18 (4.6×100 mm; Varian) column for NMP or NGP at 266 nm. Analytes concentration was quantified from standard curves prepared in transport buffer-acetonitrile (4:1). […] Apparent permeability was then calculated using the following equation: Papp=J/(A×Ci), where J is the transport rate, A is the surface area of the cell monolayer, and Ci is the initial concentration of the dosing solution.

DOR [9] = target: DOR (UniProt P41143); experiment: Competitive radioligand binding, [3H]NTI, CHO cells (Example 7); set-up: Ki δ; [3H]NTI; DOR 35S-GTP[γS]; other: three experiments; other: NAP; other: SNC80 normalized to 100%; settings: Table 13, read-out: Ki δ
Experimental: (§1) Aliquots of a membrane protein (30 μg) were incubated with the corresponding radioligand in the presence of different concentrations of the drug under investigation at 30° C. for 1 h. […] The potency of the drugs in displacing the specific binding of the radioligand was determined from data using linear regression analysis of Hill plots. The IC50 values will then be determined and corrected to Ki values using the Cheng-Prusoff equation. Functional assays were conducted in the same cell membranes used for the receptor binding assays. Membrane proteins (10 μg) were incubated with varying concentrations of drugs, GDP (μ: 10 μM; κ and δ: 20 μM) and 0.1 nM ^35S-GTP[γS] in assay buffer for 2 h (μ) or 1.5 h (κ and δ) at 30° C. Nonspecific binding was determined with 10 μM unlabeled GTP[γS].

DOR [10] = target: DOR (UniProt P41143); experiment: DOR 35S-GTP[γS] binding assay (Example 7); type: biochemical; set-up: Ki δ; [3H]NTI; DOR 35S-GTP[γS]; other: three experiments; other: NAP; other: SNC80 normalized to 100%; settings: for DOR 35S-GTP[γS] Binding % Emax of SNC80: SNC80 normalized to 100%; for EC50: three experiments
Experimental: as §1

KOR [11] = target: T2, KOR; experiment: Competitive radioligand binding, [3H]norBNI or [3H]DPN, CHO cells (Example 7); settings: Table 13; [3H]norBNI as radioligand; read-out: Ki κ
Experimental: as §1

MOR [12] = target: T1, MOR; experiment: Competitive radioligand binding, [3H]naloxone, CHO cells (Example 7); set-up: expressed in transfected cells; host or cells: CHO (Chinese hamster ovary) cell line, membrane preparation; settings: Table 13; for Selectivity δ/μ / Selectivity κ/μ: Ki ratio; for Ki: [3H]naloxone, three experiments, read-out: Ki μ
Experimental: as §1

MOR [13] = target: T1, MOR; experiment: MOR 35S-GTP[γS] binding assay (Example 7); type: biochemical; set-up: expressed in transfected cells; host or cells: CHO (Chinese hamster ovary) cell line, membrane preparation; settings: Table 13; for MOR 35S-GTP[γS] Binding % Emax of DAMGO: DAMGO normalized to 100%
Experimental: as §1

KOR [14] = target: T2, KOR; experiment: KOR 35S-GTP[γS] binding assay (Example 7); type: biochemical; settings: for KOR 35S-GTP[γS] Binding % Emax of U50,488H: U50,488H normalized to 100%; for EC50: three experiments
Experimental: as §1

morphine naive mice = experiment: Acute charcoal gavage and intestinal motility assay in morphine naive mice; settings: morphine 10 mg/kg
mice = experiment: Tail flick test, acute antinociception (Example 7); settings: 10 mg/kg
[15] = dose as high as 10 mg/kg; cited from earlier work
[16] = tested on: mouse gastrointestinal transit; settings: high doses; cited from earlier work
MOR [17] = target: T1, MOR; set-up: expressed in transfected cells; host or cells: CHO (Chinese hamster ovary) cell line, membrane preparation; settings: Table 13, NAP, cited from earlier work
MOR [18] = target: T1, MOR; set-up: expressed in transfected cells; host or cells: CHO (Chinese hamster ovary) cell line, membrane preparation; settings: Table 13 controls and NAP; read-out: Ki μ (see reference 65); cited from earlier work
Caco-2 cells [19] = settings: cited from earlier work
MOR [20] = target: T1, MOR; experiment: 35S-GTP[γS]-binding functional assay in MOR expressing CHO cells (Example 2); type: biochemical; set-up: expressed in transfected cells; host or cells: CHO (Chinese hamster ovary) cell line, membrane preparation
Experimental: Furthermore, these systems express the receptor at high density to provide optimal signal-to-noise ratios in the radioligand and ^35S-GTP[γS] binding assays.
Aliquots of a membrane preparation were incubated with the radioligands in the presence of different concentrations of the drug under investigation at 30° C. for 1 h. […] The potency of the drugs in displacing the specific binding of the radioligand was determined from data using linear regression analysis of Hill plots. The IC50 values will then be determined and corrected to K1 values using the Cheng-Prusoff equation. Functional assays, including ^35S-GTP[γS]-binding assay were conducted in the same cell membranes used for the receptor binding assays.

[21] = tested on: morphine antinociception in mice; experiment: Warm-water tail immersion test, blockade of morphine antinociception (Example 2); type: in vivo, mouse (Swiss Webster); settings: s.c., 5 min before morphine 10 mg/kg s.c.; 56 °C
[22] = in vivo; cited from earlier work
[23] = tested on: morphine antinociceptive effect in mice; settings: antagonizing morphine 10 mg/kg; s.c.; cited from earlier work

Compound | apparent permeability / bidirectional transport (Caco-2 cells [8]) | Ki (DOR [9]) | DOR 35S-GTP[γS] Binding % Emax of SNC80 (DOR [10]) | EC50 (DOR [10]) | Ki (KOR [11]) | Selectivity δ/μ (MOR [12]) | Selectivity κ/μ (MOR [12]) | Ki (MOR [12]) | EC50 (MOR [13]) | MOR 35S-GTP[γS] Binding % Emax of DAMGO (MOR [13]) | KOR 35S-GTP[γS] Binding % Emax of U50,488H (KOR [14]) | EC50 (KOR [14]) | AD50 value for blockade of morphine antinociception [21] | other results
COC(=O)/C=C/C(=O)N[C@@H]1CC[C@@]2(O)[C@H]3Cc4ccc(O)c5c4[C@@]2(CCN3CC2CC2)[C@H]1O5 [β-FNA, β-funaltrexamine] | – | – | – | – | – | – | – | – | – | – | – | – | – | Ki (DOR [1]): 27.8 ± 4.6 nM; Ki (MOR [2]): 0.41 ± 0.04 nM; Percent Max of DAMGO (MOR [3]): 0.00%; Ki (DOR [4]): 27.8 ± 4.6 nM; Ki (MOR [5]): 0.41 ± 0.04 nM; Ki (KOR [6]): 0.94 ± 0.05 nM; Ki (KOR [7]): 0.94 ± 0.05 nM
17-Cyclopropylmethyl-3,14β-dihydroxy-4,5α-epoxy-6β-{2′-[(pyridine-4″-yl)carboxamido]acetamido}morphinan [Compound 12] | no significant difference in its bidirectional transport capacity | 526 ± 78.3 nM | 84.3 ± 23.2% | 19 ± 2.9 nM | 203 ± 67 nM | 719 | 278 | 0.73 ± 0.59 nM | 2.84 ± 0.53 nM | 22.62 ± 0.66% | 23.5 ± 1.6% | 25 ± 22.4 nM | – | –
17-Cyclopropylmethyl-3,14β-dihydroxy-4,5α-epoxy-6β-{[4′-(3′-methylpyridyl)]carboxamido}morphinan [Compound 8] | low permeability | 273.6 ± 1.8 nM | 90.2 ± 21.0% | 38.6 ± 10 nM | 96.7 ± 12.2 nM | 470 | 166 | 0.58 ± 0.25 nM | 1.52 ± 0.26 nM | 30.63 ± 0.55% | 31.4 ± 3.9% | 26.4 ± 8.4 nM | – | –
CN1CC[C@]23c4c5ccc(O)c4O[C@H]2[C@@H](O)C=C[C@H]3[C@H]1C5.O=S(=O)(O)O [morphine, Morphine sulfate] | – | – | – | – | – | – | – | – | – | – | – | – | – | intestinal motility (% of intestine length travelled by charcoal) (morphine naive mice): 12.4±2.0%; percentage maximum possible effect (% MPE) (mice): 100%
17-Cyclopropylmethyl-3,14β-dihydroxy-4,5α-epoxy-6β-[(4′-pyridyl)acetamido]morphinan [Compound 6] | – | – | – | – | – | – | – | – | – | – | – | – | 4.5198 (2.4570 to 8.269.12) mg/kg (95% C.L.) | withdrawal symptoms [15]: marginal withdrawing symptoms; diarrhea [16]: incidence of diarrhea associated with high doses of NAP; MOR 35S-GTP[γS] Binding % Emax of DAMGO (see reference 65) (MOR [17]): 22.72 ± 0.84%; EC50 (MOR [17]; read-out: MOR 35S-GTP[γS] Binding EC50 (see reference 65)): 1.14 ± 0.38 nM; Ki (MOR [18]): 0.37 ± 0.07 nM; apparent permeability (words, reported previously) (Caco-2 cells [19]): significantly low; EC50 (MOR [20]; n=3): 1.15 ± 0.384 nM; Emax (% Stim) (MOR [20]; n=3): 83.3 ± 3.1 % Stim; Percent Max of DAMGO (MOR [20]; normalized to full agonist DAMGO (3 μM)): 22.72 ± 0.84%
C=CCN1CC[C@]23c4c5ccc(O)c4O[C@H]2C(=O)CC[C@@]3(O)[C@H]1C5 [Naloxone, reference compound] | – | – | – | – | – | – | – | – | – | – | – | – | 0.05 (0.03 to 0.09) mg/kg (95% C.L.) | systemic bioavailability [22]: ~2%; AD50 values (data taken from Li, et al.) [23]: 0.05 (0.03-0.09) mg/kg (95% CL)
